Assays:
[1] = target: T1, Dopamine D2 (Homo sapiens, UniProt P14416); test: cell-based; parameters: off-target selectivity panel, receptor antagonist, channel blocker or transporter inhibition mode, pXC50; conditions: antagonist mode; read-out: pXC50 (antagonist) (converted)
T1 construct: gene DRD2
Excerpt: (§1) From the outset, GSK3011724A, an indazole sulfonamide (Fig. 1a), represented an attractive compound for early stage drug discovery based on its anti-mycobacterial potency, small size and moderate lipophilicity (Table 1). Further profiling in vitro using standard assays, such as the hERG ion channel and cytochrome P450 isoforms supported this view (Table 1). […] A description of this optimization effort along with a thorough discussion of the drug development potential and liabilities of this series will be the subject of a future publication.

[2] = target: T2, Histamine H1 (Homo sapiens, UniProt P35367); test: cell-based; parameters: off-target selectivity panel, receptor antagonist, channel blocker or transporter inhibition mode, pXC50; conditions: antagonist mode; read-out: pXC50 (antagonist) (converted)
T2 construct: gene HRH1
Excerpt: as §1

[3] = target: T3, KCNQ1/minK (Homo sapiens, UniProt P15382+P51787); test: cell-based; parameters: off-target selectivity panel, receptor antagonist, channel blocker or transporter inhibition mode, pXC50; conditions: read-out: pXC50 (blocker / transporter inhibition) (converted)
T3 construct: gene KCNE1
T3 sequence (P51787 whole entry): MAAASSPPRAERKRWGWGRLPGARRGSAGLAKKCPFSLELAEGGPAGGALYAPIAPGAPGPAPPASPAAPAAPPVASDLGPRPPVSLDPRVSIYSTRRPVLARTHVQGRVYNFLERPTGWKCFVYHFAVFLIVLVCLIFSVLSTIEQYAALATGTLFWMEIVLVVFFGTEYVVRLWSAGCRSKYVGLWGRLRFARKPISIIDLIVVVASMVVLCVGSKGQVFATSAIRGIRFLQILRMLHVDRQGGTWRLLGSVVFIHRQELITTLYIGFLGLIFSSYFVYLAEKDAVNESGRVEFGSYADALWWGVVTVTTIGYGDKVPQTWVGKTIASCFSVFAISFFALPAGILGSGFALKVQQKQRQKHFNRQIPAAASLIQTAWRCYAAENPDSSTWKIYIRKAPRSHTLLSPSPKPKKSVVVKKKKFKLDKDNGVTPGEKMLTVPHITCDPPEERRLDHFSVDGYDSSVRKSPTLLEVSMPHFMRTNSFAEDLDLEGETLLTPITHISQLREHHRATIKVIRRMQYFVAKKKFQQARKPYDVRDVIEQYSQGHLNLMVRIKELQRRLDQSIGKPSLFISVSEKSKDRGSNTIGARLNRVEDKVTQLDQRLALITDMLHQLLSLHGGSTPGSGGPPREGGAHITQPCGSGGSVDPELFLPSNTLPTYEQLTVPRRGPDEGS
Excerpt: as §1

[4] = target: T4, Kv1.5 (Homo sapiens, UniProt P22460); test: cell-based; parameters: off-target selectivity panel, receptor antagonist, channel blocker or transporter inhibition mode, pXC50; conditions: read-out: pXC50 (blocker / transporter inhibition) (converted)
T4 construct: gene KCNA5
T4 sequence (P22460 whole entry): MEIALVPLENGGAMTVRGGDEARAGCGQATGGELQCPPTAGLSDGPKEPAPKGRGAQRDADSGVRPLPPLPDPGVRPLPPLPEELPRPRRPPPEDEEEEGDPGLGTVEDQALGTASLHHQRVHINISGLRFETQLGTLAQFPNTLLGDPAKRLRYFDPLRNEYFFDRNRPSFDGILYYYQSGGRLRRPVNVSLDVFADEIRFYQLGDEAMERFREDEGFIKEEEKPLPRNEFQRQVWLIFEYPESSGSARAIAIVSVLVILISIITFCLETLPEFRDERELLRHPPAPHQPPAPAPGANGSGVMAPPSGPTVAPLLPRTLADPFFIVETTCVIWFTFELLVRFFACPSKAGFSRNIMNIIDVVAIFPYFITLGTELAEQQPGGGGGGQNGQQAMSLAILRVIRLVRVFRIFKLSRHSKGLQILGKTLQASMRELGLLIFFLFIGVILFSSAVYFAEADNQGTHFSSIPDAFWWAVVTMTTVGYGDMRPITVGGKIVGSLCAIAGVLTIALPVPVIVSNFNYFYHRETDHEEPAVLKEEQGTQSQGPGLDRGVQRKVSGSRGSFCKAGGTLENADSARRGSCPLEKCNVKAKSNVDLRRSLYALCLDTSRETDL
Excerpt: as §1

[5] = target: T5, L-type Ca channel (CaV1.2) (Homo sapiens, UniProt Q13936); test: cell-based; parameters: off-target selectivity panel, receptor antagonist, channel blocker or transporter inhibition mode, pXC50; conditions: read-out: pXC50 (blocker / transporter inhibition) (converted)
T5 construct: gene CACNA1C
Excerpt: as §1

[6] = target: T6, Muscarine M1 (Homo sapiens, UniProt P11229); test: cell-based; parameters: off-target selectivity panel, receptor antagonist, channel blocker or transporter inhibition mode, pXC50; conditions: antagonist mode; read-out: pXC50 (antagonist) (converted)
T6 construct: gene CHRM1
T6 sequence (P11229 whole entry): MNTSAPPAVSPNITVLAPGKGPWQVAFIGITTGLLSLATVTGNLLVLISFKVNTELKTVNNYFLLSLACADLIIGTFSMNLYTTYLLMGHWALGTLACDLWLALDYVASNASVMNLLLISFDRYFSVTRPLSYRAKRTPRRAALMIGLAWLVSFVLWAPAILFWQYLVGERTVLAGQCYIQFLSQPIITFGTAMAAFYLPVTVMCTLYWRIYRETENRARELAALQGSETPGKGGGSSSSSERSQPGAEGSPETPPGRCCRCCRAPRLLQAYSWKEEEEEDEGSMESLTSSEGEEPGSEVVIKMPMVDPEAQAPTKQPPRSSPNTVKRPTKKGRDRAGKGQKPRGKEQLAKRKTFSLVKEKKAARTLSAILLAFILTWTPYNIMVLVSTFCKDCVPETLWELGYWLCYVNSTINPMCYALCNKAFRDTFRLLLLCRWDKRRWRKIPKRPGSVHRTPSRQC
Excerpt: as §1

[7] = target: T7, Muscarine M2 (Homo sapiens, UniProt P08172); test: cell-based; parameters: off-target selectivity panel, receptor antagonist, channel blocker or transporter inhibition mode, pXC50; conditions: antagonist mode; read-out: pXC50 (antagonist) (converted)
T7 construct: gene CHRM2
T7 sequence (P08172 whole entry): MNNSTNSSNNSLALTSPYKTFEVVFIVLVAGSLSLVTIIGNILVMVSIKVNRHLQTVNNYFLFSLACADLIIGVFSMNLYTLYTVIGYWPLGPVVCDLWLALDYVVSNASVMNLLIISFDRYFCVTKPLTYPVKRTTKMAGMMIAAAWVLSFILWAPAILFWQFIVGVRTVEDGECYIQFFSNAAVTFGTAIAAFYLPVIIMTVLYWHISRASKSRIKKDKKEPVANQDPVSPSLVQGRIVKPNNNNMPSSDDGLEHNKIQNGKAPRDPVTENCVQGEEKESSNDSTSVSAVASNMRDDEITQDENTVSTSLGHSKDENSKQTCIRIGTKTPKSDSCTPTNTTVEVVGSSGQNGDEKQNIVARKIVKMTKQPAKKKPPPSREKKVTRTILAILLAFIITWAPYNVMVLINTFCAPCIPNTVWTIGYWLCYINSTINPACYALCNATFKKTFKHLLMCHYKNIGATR
Excerpt: as §1

[8] = target: T8, NMDA Channel (NR2B) (Homo sapiens, UniProt Q13224); test: cell-based; parameters: off-target selectivity panel, receptor antagonist, channel blocker or transporter inhibition mode, pXC50; conditions: read-out: pXC50 (blocker / transporter inhibition) (converted)
T8 construct: gene GRIN2B
Excerpt: as §1

[9] = target: T9, NaV1.5 (Homo sapiens, UniProt Q14524); test: cell-based; parameters: off-target selectivity panel, receptor antagonist, channel blocker or transporter inhibition mode, pXC50; conditions: read-out: pXC50 (blocker / transporter inhibition) (converted)
T9 construct: gene SCN5A
T9 sequence (Q14524 whole entry): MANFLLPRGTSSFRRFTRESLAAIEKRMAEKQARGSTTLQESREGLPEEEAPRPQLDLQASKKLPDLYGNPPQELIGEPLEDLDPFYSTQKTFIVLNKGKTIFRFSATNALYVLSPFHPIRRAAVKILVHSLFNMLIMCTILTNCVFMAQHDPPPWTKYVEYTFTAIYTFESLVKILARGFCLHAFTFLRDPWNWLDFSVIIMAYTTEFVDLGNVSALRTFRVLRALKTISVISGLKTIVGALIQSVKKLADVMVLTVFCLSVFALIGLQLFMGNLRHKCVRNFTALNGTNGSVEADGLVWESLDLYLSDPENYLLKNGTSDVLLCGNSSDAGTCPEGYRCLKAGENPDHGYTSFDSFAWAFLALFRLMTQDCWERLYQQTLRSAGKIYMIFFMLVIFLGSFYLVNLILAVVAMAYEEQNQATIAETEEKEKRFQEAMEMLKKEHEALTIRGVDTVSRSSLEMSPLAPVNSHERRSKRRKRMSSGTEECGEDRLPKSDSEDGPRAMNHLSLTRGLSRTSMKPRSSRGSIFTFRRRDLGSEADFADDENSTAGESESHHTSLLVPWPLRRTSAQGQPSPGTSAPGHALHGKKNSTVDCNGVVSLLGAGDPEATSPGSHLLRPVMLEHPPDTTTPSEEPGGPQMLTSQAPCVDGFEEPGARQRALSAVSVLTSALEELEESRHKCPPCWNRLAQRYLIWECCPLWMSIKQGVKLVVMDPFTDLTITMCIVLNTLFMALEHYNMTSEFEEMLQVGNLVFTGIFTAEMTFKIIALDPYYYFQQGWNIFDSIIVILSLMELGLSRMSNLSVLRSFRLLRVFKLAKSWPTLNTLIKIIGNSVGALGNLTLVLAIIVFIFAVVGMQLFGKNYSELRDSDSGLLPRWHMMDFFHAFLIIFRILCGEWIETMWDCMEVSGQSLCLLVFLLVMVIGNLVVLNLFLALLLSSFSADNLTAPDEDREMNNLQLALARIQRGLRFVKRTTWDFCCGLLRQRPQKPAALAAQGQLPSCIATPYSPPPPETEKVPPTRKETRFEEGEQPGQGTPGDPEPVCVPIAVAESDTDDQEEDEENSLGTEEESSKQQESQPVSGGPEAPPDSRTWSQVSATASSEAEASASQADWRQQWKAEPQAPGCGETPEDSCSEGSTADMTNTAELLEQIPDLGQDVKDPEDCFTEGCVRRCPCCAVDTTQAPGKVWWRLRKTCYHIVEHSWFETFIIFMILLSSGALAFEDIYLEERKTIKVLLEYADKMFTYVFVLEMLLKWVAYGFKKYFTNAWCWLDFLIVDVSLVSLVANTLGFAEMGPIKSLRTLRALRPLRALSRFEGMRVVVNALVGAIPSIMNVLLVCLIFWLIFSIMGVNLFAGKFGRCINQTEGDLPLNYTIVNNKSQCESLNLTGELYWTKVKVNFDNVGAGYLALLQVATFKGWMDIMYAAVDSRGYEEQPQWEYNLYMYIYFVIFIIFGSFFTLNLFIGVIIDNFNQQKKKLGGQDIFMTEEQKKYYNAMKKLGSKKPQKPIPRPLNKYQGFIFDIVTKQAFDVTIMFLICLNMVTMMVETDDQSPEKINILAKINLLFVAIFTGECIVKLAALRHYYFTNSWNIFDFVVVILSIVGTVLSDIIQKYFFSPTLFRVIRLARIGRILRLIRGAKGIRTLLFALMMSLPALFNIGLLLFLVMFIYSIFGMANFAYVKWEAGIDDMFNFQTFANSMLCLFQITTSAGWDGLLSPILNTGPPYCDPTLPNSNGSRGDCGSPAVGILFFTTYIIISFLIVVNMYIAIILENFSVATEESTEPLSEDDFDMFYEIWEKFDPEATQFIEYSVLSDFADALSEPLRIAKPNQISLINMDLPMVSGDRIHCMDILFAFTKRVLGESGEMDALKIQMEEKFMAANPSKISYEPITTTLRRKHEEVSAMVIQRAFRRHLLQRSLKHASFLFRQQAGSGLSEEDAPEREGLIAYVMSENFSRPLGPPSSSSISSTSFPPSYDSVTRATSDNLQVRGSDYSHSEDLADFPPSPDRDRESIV
Excerpt: as §1

[10] = target: T10, Neurokinin NK1 (Homo sapiens, UniProt P25103); test: cell-based; parameters: off-target selectivity panel, receptor antagonist, channel blocker or transporter inhibition mode, pXC50; conditions: antagonist mode; read-out: pXC50 (antagonist) (converted)
T10 construct: gene TACR1
Excerpt: as §1

[11] = target: T11, OATP1B1 (Homo sapiens, UniProt Q9Y6L6); test: cell-based; parameters: off-target selectivity panel, receptor antagonist, channel blocker or transporter inhibition mode, pXC50; conditions: read-out: pXC50 (blocker / transporter inhibition) (converted)
T11 construct: gene SLCO1B1
Excerpt: as §1

[12] = target: T12, Serotonin 5HT1B (Homo sapiens, UniProt P28222); test: cell-based; parameters: off-target selectivity panel, receptor antagonist, channel blocker or transporter inhibition mode, pXC50; conditions: antagonist mode; read-out: pXC50 (antagonist) (converted)
T12 construct: gene HTR1B
Excerpt: as §1

[13] = target: T13, Serotonin 5HT2A (Homo sapiens, UniProt P28223); test: cell-based; parameters: off-target selectivity panel, receptor antagonist, channel blocker or transporter inhibition mode, pXC50; conditions: antagonist mode; read-out: pXC50 (antagonist) (converted)
T13 construct: gene HTR2A
Excerpt: as §1

[14] = target: T14, Serotonin 5HT2C (Homo sapiens, UniProt P28335); test: cell-based; parameters: off-target selectivity panel, receptor antagonist, channel blocker or transporter inhibition mode, pXC50; conditions: antagonist mode; read-out: pXC50 (antagonist) (converted)
T14 construct: gene HTR2C
Excerpt: as §1

[15] = target: T15, Serotonin 5HT3 (Homo sapiens, UniProt P46098); test: cell-based; parameters: off-target selectivity panel, receptor antagonist, channel blocker or transporter inhibition mode, pXC50; conditions: read-out: pXC50 (blocker / transporter inhibition) (converted)
T15 construct: gene HTR3A
Excerpt: as §1

[16] = target: T16, Vasopressin V1a (Homo sapiens, UniProt P37288); test: cell-based; parameters: off-target selectivity panel, receptor antagonist, channel blocker or transporter inhibition mode, pXC50; conditions: antagonist mode; read-out: pXC50 (antagonist) (converted)
T16 construct: gene AVPR1A
Excerpt: as §1

[17] = target: T17, hERG (Homo sapiens, UniProt Q12809); test: cell-based; parameters: off-target selectivity panel, receptor antagonist, channel blocker or transporter inhibition mode, pXC50; conditions: read-out: pXC50 (blocker / transporter inhibition) (converted)
T17 construct: gene KCNH2
Excerpt: as §1

[18] = target: T18, α1 nicotinic AChR (Homo sapiens, UniProt P02708); test: cell-based; parameters: off-target selectivity panel, receptor antagonist, channel blocker or transporter inhibition mode, pXC50; conditions: read-out: pXC50 (blocker / transporter inhibition) (converted)
T18 construct: gene CHRNA1
Excerpt: as §1

[19] = target: T19, Acetylcholinesterase (Homo sapiens, UniProt P22303); test: biochemical; parameters: off-target selectivity panel, enzyme and kinase inhibition, pXC50; conditions: read-out: pXC50 (enzyme inhibition) (converted)
T19 construct: gene ACHE
Excerpt: as §1

[20] = target: T20, COX-2 (Homo sapiens, UniProt P35354); test: biochemical; parameters: off-target selectivity panel, enzyme and kinase inhibition, pXC50; conditions: read-out: pXC50 (enzyme inhibition) (converted)
T20 construct: gene PTGS2
Excerpt: as §1

[21] = target: LCK (Homo sapiens, UniProt P06239); test: biochemical; parameters: off-target selectivity panel, enzyme and kinase inhibition, pXC50; conditions: read-out: pXC50 (enzyme inhibition) (converted)
Sequence of LCK (P06239 whole entry): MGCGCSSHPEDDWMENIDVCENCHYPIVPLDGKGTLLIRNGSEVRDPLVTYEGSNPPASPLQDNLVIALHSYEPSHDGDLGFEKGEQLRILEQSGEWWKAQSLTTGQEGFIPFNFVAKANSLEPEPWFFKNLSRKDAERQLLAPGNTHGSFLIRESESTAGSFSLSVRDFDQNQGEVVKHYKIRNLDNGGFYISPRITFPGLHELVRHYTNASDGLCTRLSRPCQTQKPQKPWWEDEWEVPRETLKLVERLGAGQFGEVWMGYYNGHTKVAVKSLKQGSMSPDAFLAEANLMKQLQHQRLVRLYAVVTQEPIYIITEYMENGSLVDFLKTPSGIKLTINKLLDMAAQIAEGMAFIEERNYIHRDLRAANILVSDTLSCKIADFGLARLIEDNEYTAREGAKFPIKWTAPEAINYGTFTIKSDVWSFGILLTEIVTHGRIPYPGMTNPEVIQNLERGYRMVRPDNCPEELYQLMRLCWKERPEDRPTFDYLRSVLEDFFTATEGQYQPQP
Excerpt: as §1

[22] = target: PDE3A (Homo sapiens, UniProt Q14432); test: biochemical; parameters: off-target selectivity panel, enzyme and kinase inhibition, pXC50; conditions: read-out: pXC50 (enzyme inhibition) (converted)
Excerpt: as §1

[23] = target: T21, PI3Kγ (Homo sapiens, UniProt P48736); test: biochemical; parameters: off-target selectivity panel, enzyme and kinase inhibition, pXC50; conditions: read-out: pXC50 (enzyme inhibition) (converted)
T21 construct: gene PIK3CG
Excerpt: as §1

Q: Which IC50 [1] does the source give for `CCCCS(=O)(=O)Nc1ccc2cnn(C)c2c1` [GSK3011724A] here?
A: The IC50 was > 100 µM.

Q: What about the IC50 [2] of the same molecule?
A: The IC50 was > 25.1 µM.

Q: What about the IC50 [3] of the same molecule?
A: The IC50 was > 25.1 µM.

Q: What about the IC50 [4] of the same molecule?
A: Its IC50 is > 50.1 µM.

Q: What about the IC50 [5] of the same molecule?
A: Its IC50 is > 100 µM.

Q: And the IC50 [6]?
A: The IC50 was > 50.1 µM.

Q: What about the IC50 [7] of the same molecule?
A: Its IC50 is > 50.1 µM.

Q: What about the IC50 [8] of the same molecule?
A: The IC50 was > 50.1 µM.

Q: And the IC50 [9]?
A: Its IC50 is > 100 µM.

Q: And the IC50 [10]?
A: Its IC50 is > 25.1 µM.

Q: What about the IC50 [11] of the same molecule?
A: Its IC50 is > 50.1 µM.

Q: And the IC50 [12]?
A: Its IC50 is > 100 µM.

Q: And the IC50 [13]?
A: Its IC50 is > 25.1 µM.

Q: And the IC50 [14]?
A: Its IC50 is > 25.1 µM.

Q: And the IC50 [15]?
A: The IC50 was > 50.1 µM.

Q: What about the IC50 [16] of the same molecule?
A: Its IC50 is > 50.1 µM.

Q: And the IC50 [17]?
A: Its IC50 is > 63.1 µM.

Q: What about the IC50 [18] of the same molecule?
A: The IC50 was > 50.1 µM.

Q: What about the IC50 [19] of the same molecule?
A: Its IC50 is > 100 µM.

Q: What about the IC50 [20] of the same molecule?
A: Its IC50 is > 100 µM.

Q: And the IC50 [21]?
A: Its IC50 is > 31.6 µM.

Q: What about the IC50 [22] of the same molecule?
A: The IC50 was > 100 µM.

Q: And the IC50 [23]?
A: Its IC50 is > 31.6 µM.

Source: paper PMC5025758 (Nature Communications, 2016)
